Legend:
[1] = Fluorescence excitation/emission of the styryl dye library compounds; type: physicochemical
[2] = tested on: UACC-62 human melanoma cells; experiment: Organelle localization in live cells by fluorescence microscopy; settings: live UACC-62 cells, fluorescence microscope λex=405, 490, 570 nm; λem>510 nm

SMILES	EM(nm) ([1]; EX/EM peak no. 1)	EX(nm) ([1]; EX/EM peak no. 1)	LOCALIZATION [2]	EM(nm) ([1]; EX/EM peak no. 2)	EX(nm) ([1]; EX/EM peak no. 2)
COc1ccc2c(ccc(C=Cc3ccc(OC)c4ccccc34)[n+]2C)c1.[I-] [Compound I14]	580-590 nm	460 nm	VESICLE		
C[n+]1ccc(C=CCc2ccccc2)cc1.[I-] [Compound A1]	490 nm	390 nm	CYTO		
COc1ccc2c(ccc(C=Cc3ccc(F)cc3)[n+]2C)c1.[I-] [Compound I30]	630 nm		MITO		
Cc1ccnc(-c2cc(/C=C/c3ccccc3Br)cc[n+]2C)c1.[I-] [Compound J3]	620 nm	450 nm	MITO		
C[n+]1ccc(C=Cc2ccc3ccccc3c2)c2ccccc21.[I-] [Compound G33]	550 nm	360-470 nm	MITO and CYTO		
COc1ccc2c(ccc(C=Cc3cccc(Br)c3)[n+]2C)c1.[I-] [Compound I4]	620 nm	400(broad) nm	GRANULE		
C[n+]1c(/C=C/c2c(F)c(F)c(F)c(F)c2F)ccc2ccccc21.[I-] [Compound H31]	610 nm	420 nm	MITO and NUCLEI		
COc1ccc(C=Cc2ccc3ccccc3[n+]2C)cc1.[I-] [Compound H10]	650 nm	530 nm	MITO		
CN(C)c1ccc(C=Cc2cc[n+](C)cc2)cc1.[I-] [Compound A19]	600 nm	460 nm	MITO and NUCLEOLI		
Cc1cccc(C=CC=Cc2ccccc2)[n+]1C.[I-] [Compound L35]	510 nm	420 nm	MITO		
COc1ccc(C=Cc2ccc3ccccc3[n+]2C)c2ccccc12.[I-] [Compound H14]	590 nm	420-520 nm	VESICLE		
COc1ccc(C=Cc2cc[n+](C)c3ccccc23)c2ccccc12.[I-] [Compound G14]	620 nm	480(broad) nm	MITO		
Cc1ccnc(-c2cc(C=Cc3c(F)c(F)c(F)c(F)c3F)cc[n+]2C)c1.[I-] [Compound J31]	520 nm		MITO		
Cc1ccnc(-c2cc(C=Cc3ccccc3[N+](=O)[O-])cc[n+]2C)c1.[I-] [Compound J20]	620 nm	420 nm	VESICLE		
C[n+]1c(C=Cc2ccc(O)cc2)ccc2ccccc21.[I-] [Compound H16]	630 nm	450 nm	NUCLEOLI		
COc1ccc2c(ccc(/C=C/c3ccc4ccccc4c3)[n+]2C)c1.[I-] [Compound I33]	640 nm	420 nm	VESICLE and MITO and NUCLEI	560	320-460 nm
Cc1cccc(C=Cc2cccc3ccccc23)[n+]1C.[I-] [Compound L32]	520 nm	400(broad) nm	MITO		
CN(C)c1ccc(C=Cc2ccc3ccccc3[n+]2C)c2ccccc12.[I-] [Compound H27]	620 nm	500(broad) nm	MITO		
Cc1cccc(C=Cc2ccc3ccccc3c2)[n+]1C.[I-] [Compound L33]	500 nm	360-470 nm	MITO		
COc1ccc2c(ccc(/C=C/c3ccc(NC(C)=O)cc3)[n+]2C)c1.[I-] [Compound I18]	650 nm	430(broad) nm	NUCLEOLI		

SMILES	EM(nm) ([1]; EX/EM peak no. 1)	EX(nm) ([1]; EX/EM peak no. 1)	LOCALIZATION [2]	EM(nm) ([1]; EX/EM peak no. 2)	EX(nm) ([1]; EX/EM peak no. 2)
C[n+]1ccc(C=Cc2c[nH]c3ccccc23)cc1Br.[I-] [Compound F24]	550 nm	460 nm	VESICLE		
C[n+]1ccc(C=Cc2ccc(OCc3ccccc3)c(OCc3ccccc3)c2)cc1.[I-] [Compound A12]	540 nm	330-460 nm	MITO		
COc1ccc2c(ccc(C=Cc3c(F)c(F)c(F)c(F)c3F)[n+]2C)c1.[I-] [Compound I31]	610 nm	380 nm	MITO and NUCLEI and CYTO		
Cc1ccnc(-c2cc(/C=C/c3ccc(N(C)C)cc3)cc[n+]2C)c1.[I-] [Compound J19]	640 nm	480 nm	MITO		
Cc1ccnc(-c2cc(C=Cc3ccc(OCc4ccccc4)c(OCc4ccccc4)c3)cc[n+]2C)c1.[I-] [Compound J12]	560 nm	350-470 nm	VESICLE		
C[n+]1ccc(C=Cc2ccc(OCc3ccccc3)c(OCc3ccccc3)c2)c2ccccc21.[I-] [Compound G12]	590 nm	420-460 nm	MITO and NUCLEOLI		
CC(=O)Nc1ccc(C=Cc2ccc3ccccc3[n+]2C)cc1.[I-] [Compound H18]	650 nm	430 nm	MITO and NUCLEOLI		
COc1ccc2c(ccc(C=Cc3ccc(OC)c(OC)c3)[n+]2C)c1.[I-] [Compound I11]	560 nm	430 nm			
C[n+]1c(C=Cc2ccc3ccc4cccc5ccc2c3c45)ccc2ccccc21.[I-] [Compound H41]	640 nm	480 nm			
COc1ccc2c(ccc(C=Cc3ccc(OC)c(O)c3)[n+]2C)c1.[I-] [Compound I15]	520 nm	360 nm			
COc1cc(OC)c(OC)cc1C=Cc1cc[n+](C)cc1.[I-] [Compound A38]	540 nm	410 nm			
COc1ccc(C=Cc2ccc3ccccc3[n+]2C)cc1OC.[I-] [Compound H11]	570 nm	460 nm			
CCc1ccc(/C=C/c2c[nH]c3ccccc23)[n+](C)c1.[I-] [Compound E24]	510 nm	430 nm			
COc1ccc(C=Cc2cccc[n+]2C)cc1O.[I-] [Compound C15]	500 nm	390 nm			
COc1ccc(C=Cc2cc[n+](C34CC5CC(CC(C5)C3)C4)cc2)c2ccccc12.[Br-] [Compound B14]	550 nm	360-450 nm			
C[n+]1ccc(C=Cc2ccc(Br)cc2)cc1.[I-] [Compound A5]	540 nm	375 nm			
C[n+]1ccc(C=Cc2ccc(O)cc2)cc1.[I-] [Compound A16]	510 nm	390-420 nm			
COc1ccc2ccccc2c1C=Cc1cc[n+](C)c(-c2cc(C)ccn2)c1.[I-] [Compound J23]	570 nm	430-460 nm			
C[n+]1ccccc1C=Cc1ccccn1.[I-] [Compound C40]	610 nm	390 nm			
COc1cc(OC)c(OC)cc1C=Cc1cccc(C)[n+]1C.[I-] [Compound L38]	570 nm	420 nm			

SMILES	EM(nm) ([1]; EX/EM peak no. 1)	EX(nm) ([1]; EX/EM peak no. 1)	LOCALIZATION [2]	EM(nm) ([1]; EX/EM peak no. 2)	EX(nm) ([1]; EX/EM peak no. 2)
Cc1ccnc(-c2cc(/C=C/c3c[nH]c4ccccc34)cc[n+]2C)c1.[I-] [Compound J24]	560 nm	420-500 nm			
CCc1ccc(/C=C/c2ccc(N(C)C)c3ccccc23)[n+](C)c1.[I-] [Compound E27]	620 nm	430 nm			
CN(C)c1ccc(C=Cc2cc[n+](C)c(Br)c2)cc1.[I-] [Compound F19]	610 nm	440(broad) nm			
C[n+]1ccc(C=Cc2ccc3ccccc3c2)cc1.[I-] [Compound A33]	600 nm	360-420 nm			
C[n+]1ccc(/C=C/c2ccc3c(c2)Cc2ccccc2-3)c2ccccc21.[I-] [Compound G28]	620 nm	450 nm			
C[n+]1ccc(C=Cc2ccccc2F)cc1.[I-] [Compound A29]	560 nm	400-420 nm			
CCc1ccc(C=Cc2ccc(OCc3ccccc3)c(OCc3ccccc3)c2)[n+](C)c1.[I-] [Compound E12]	510 nm	400 nm			
Cc1cccc(/C=C/c2ccccn2)[n+]1C.[I-] [Compound L40]	620 nm	380 nm			
COc1ccc2c(ccc(C=Cc3ccc(Br)cc3)[n+]2C)c1.[I-] [Compound I5]	650 nm	420 nm			
CCc1ccc(C=Cc2ccccn2)[n+](C)c1.[I-] [Compound E40]	610 nm	390 nm			
Cc1ccnc(-c2cc(C=CC=Cc3ccccc3[N+](=O)[O-])cc[n+]2C)c1.[I-] [Compound J36]	540 nm	420 nm			
C[n+]1ccc(C=Cc2ccc(O)cc2)cc1Br.[I-] [Compound F16]	510 nm	410 nm			
COc1ccc2c(ccc(C=Cc3ccc4ccc5cccc6ccc3c4c56)[n+]2C)c1.[I-] [Compound I41]	630 nm	480 nm			
COc1ccc2c(ccc(C=Cc3ccc4c(c3)OCO4)[n+]2C)c1.[I-] [Compound I39]	500 nm	380 nm			
Cc1cccc(C=Cc2ccc(O)cc2)[n+]1C.[I-] [Compound L16]	500 nm	390 nm			
COc1ccc2c(ccc(C=Cc3c(OC)ccc4ccccc34)[n+]2C)c1.[I-] [Compound I23]	550 nm	340-360 nm			
C[n+]1c(C=Cc2ccc(Br)cc2)ccc2ccccc21.[I-] [Compound H5]	640 nm	480 nm			
COc1ccc(C=Cc2cc[n+](C)c3ccccc23)cc1O.[I-] [Compound G15]	560 nm	420-460 nm			
CN(C)c1ccc(C=CC=Cc2cc[n+](C)cc2)cc1.[I-] [Compound A37]	580 nm	460-490 nm			
COc1ccc2c(ccc(C=Cc3c4ccccc4cc4ccccc34)[n+]2C)c1.[I-] [Compound I34]	650 nm	490 nm			
